Measurements from patent publication US20250221979A1, “NOVEL HETEROCYCLIC COMPOUND” (SHOUYAO HOLDINGS (BEIJING) CO., LTD., priority 2022, published 2025).

Target: human MAT2A enzyme (Homo sapiens (Human), UniProt P31153)
Assay: In vitro enzymatic inhibition activity assay on MAT2A (PiColorLock phosphate detection)
Format: biochemical
Settings: purified human MAT2A 10 nM, ATP 50 μM, L-methionine 100 μM, 6 h at 23° C.; read-out: MAT2A inhibitory activity IC50
Description: Enzymatic activity assays of compounds of this patent against MAT2A (to detect half inhibitory concentration IC50 values of the compounds) were performed using the phosphate detection kit PiColorLockTM (ab270004, purchased from Abcam). This method utilized the principle that purified human MAT2A enzyme catalyzes the formation of S-adenosylmethionine (SAM) from L-methionine and ATP to release free phosphate, and used the spectrophotometric method to quantify phosphate, so as to determine the enzymatic activity of MAT2A. Compounds were diluted in a 10-fold gradient starting at 1 mM with 100% DMSO (for a total of 8 concentrations) and 2 μL of each concentration was added to 48 μL of reaction buffer (50 mM Tris-HCl PH 7.5, 50 mM KCl, 10 mM MgCl2, 0.01% Brij-35, 0.01% BSA, 1 mM DTT) and mixed well. The final diluted compound was prepared, and 5 μL of MAT2A enzyme (final concentration of 10 nM), 5 μL of ATP (final concentration of 50 μM), and 5 μL of L-methionine (final concentration of 100 μM) were added to each well of a 384-well plate (#3701, purchased from CORNING). After the 384-well plate was placed in the incubator at 23° C. for 6 h, 5 μL of PiColorLock reagent diluted Accelerator (dilution ratio 1:100) was added to each well, and the reaction was stopped by incubating in the incubator at 23° C. for 5 min. 2 μL of Stabiliser was added, the absorbance was read at 630 nm on BMG CLARIOstar, and the IC50 value of the compound was calculated by using GraphPad Prism software.
Under the conditions of this experiment, the inhibition of MAT2A by test compounds can be expressed as an IC50 value for the inhibition of the level of phosphate production during the enzymatic reaction.

Chain of human MAT2A enzyme (P31153 whole entry): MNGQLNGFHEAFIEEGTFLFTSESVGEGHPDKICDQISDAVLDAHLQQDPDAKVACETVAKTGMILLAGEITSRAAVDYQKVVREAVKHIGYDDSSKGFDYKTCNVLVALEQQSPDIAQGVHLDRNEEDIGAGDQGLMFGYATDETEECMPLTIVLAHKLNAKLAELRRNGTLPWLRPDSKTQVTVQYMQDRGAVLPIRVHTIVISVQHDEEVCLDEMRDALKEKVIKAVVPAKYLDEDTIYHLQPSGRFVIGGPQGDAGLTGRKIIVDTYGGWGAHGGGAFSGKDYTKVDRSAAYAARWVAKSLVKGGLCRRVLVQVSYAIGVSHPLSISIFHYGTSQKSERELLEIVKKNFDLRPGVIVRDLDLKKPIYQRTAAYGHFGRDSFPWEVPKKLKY

Row | IC50 [nM] | Structure (SMILES)
1 | 2.65 | COC(=O)c1c(N)c2ccc(C)cc2n(-c2ccc(C(C)O)cc2)c1=O (stereo not drawn) [Example 329, methyl 4-amino-1-(4-(1-hydroxyethyl)phenyl)-2-oxo-7-methyl-1,2-dihydroquinoline-3-carboxylate]
2 | 0.59 | COC(=O)c1c(N)c2ccc(Br)cc2n(-c2ccc(C)cc2)c1=O [Example 101, methyl 4-amino-7-bromo-1-(4-methylphenyl)-2-oxo-1,2-dihydroquinoline-3-carboxylate]
3 | 2.42 | COC(=O)c1c(N)c2ccc(C(F)(F)F)nc2n(-c2ccc(N)nc2C)c1=O [Example 308, methyl 4-amino-1-(6-amino-2-methylpyridin-3-yl)-2-oxo-7-(trifluoromethyl)-1,2-dihydro-1,8-naphthyridine-3-carboxylate]
4 | 0.61 | COC(=O)c1c(N)c2ccc(I)cc2n(-c2ccc(OC)cc2)c1=O [Example 79, methyl 4-amino-7-iodo-1-(4-methoxyphenyl)-2-oxo-1,2-dihydroquinoline-3-carboxylate]
5 | 1.88 | COC(=O)c1c(N)c2ccc(NCC(F)(F)F)nc2n(-c2ccc(C)nc2)c1=O [Example 382, methyl 4-amino-1-(6-methylpyridin-3-yl)-2-oxo-7-((2,2,2-trifluoroethyl)amino)-1,2-dihydro-1,8-naphthyridine-3-carboxylate]
6 | 2.83 | COC(=O)c1c(N)c2ccc(C(F)(F)F)cc2n(-c2ccc3c(c2)CCC3(C)O)c1=O (stereo not drawn) [Example 148, methyl 4-amino-1-(1-hydroxy-1-methyl-2,3-dihydro-1H-inden-5-yl)-2-oxo-7-(trifluoromethyl)-1,2-dihydroquinoline-3-carboxylate]
7 | 2.39 | COC(=O)c1c(N)c2ccc(C)nc2n(-c2ccc([C@@H](C)O)cc2)c1=O [Example 343, methyl 4-amino-(1-(4-(1R)-1-hydroxyethyl)phenyl)-7-methyl-2-oxo-pyrido[2,3-b]pyridin-3-carboxylate]
8 | 1.05 | [2H]C([2H])([2H])OC(=O)c1c(N)c2ccc(Br)cc2n(-c2ccc([C@@H](C)O)cc2)c1=O [Example 351, methyl-d3 (R)-4-amino-7-bromo-1-(4-(1-hydroxyethyl)phenyl)-2-oxo-1,2-dihydroquinolin-3-carboxylate]
9 | 2.58 | COC(=O)c1c(N)c2ccc(Br)cc2n(-c2ccc(C(C)O)nc2)c1=O (stereo not drawn) [Example 352, methyl 4-amino-7-bromo-1-(6-(1-hydroxyethyl)pyridin-3-yl)-2-oxo-1,2-dihydroquinoline-3-carboxylate]
10 | 1.14 | COC(=O)c1c(N)c2ccc(I)cc2n(-c2ccc(C(C)O)nc2)c1=O (stereo not drawn) [Example 307, methyl 4-amino-1-(6-(1-hydroxyethyl)pyridin-3-yl)-2-oxo-7-iodo-1,2-dihydroquinoline-3-carboxylate]
11 | 2.38 | Cc1ccccc1-n1c(=O)c(C(=O)OC2CC2)c(N)c2ccc(I)cc21 [Example 52, cyclopropyl 4-amino-7-iodo-1-(2-methylphenyl)-2-oxo-1,2-dihydroquinolin-3-carboxylate]
12 | 1.83 | COC(=O)c1c(N)c2ccc(C(F)(F)F)cc2n(-c2ccc([C@H](C)O)cc2)c1=O [Example 271, methyl 4-amino-1-(4-(1-(S)-hydroxyethyl)phenyl)-2-oxo-7-(trifluoromethyl)-1,2-dihydroquinoline-3-carboxylate]
13 | 2.87 | COC(=O)c1c(N)c2ccc(C(F)(F)F)cc2n(-c2cn[nH]c2)c1=O [Example 159, methyl 4-amino-2-oxo-1-(1H-pyrazol-4-yl)-7-(trifluoromethyl)-1,2-dihydroquinoline-3-carboxylate]
14 | 6.39 | COC(=O)c1c(N)c2ccc(C(F)(F)F)cc2n(-c2ccccc2Cl)c1=O [Example 69, methyl 4-amino-1-(2-chlorophenyl)-2-oxo-7-(trifluoromethyl)-1,2-dihydro quinoline-3-carboxylate]
15 | 1.76 | COC(=O)c1c(N)c2ccc(C(F)(F)F)cc2n(-c2ccc(C)c(N)c2)c1=O [Example 253, methyl 4-amino-1-(3-amino-4-methylphenyl)-2-oxo-7-(trifluoromethyl)-1,2-dihydroquinoline-3-carboxylate]
16 | 4.91 | C=Cc1ccc(-n2c(=O)c(C(=O)OC)c(N)c3ccc(C(F)(F)F)cc32)cc1 [Example 132, methyl 4-amino-2-oxo-7-(trifluoromethyl)-1-(4-vinylphenyl)-1,2-dihydroquinoline-3-carboxylate]
17 | 1.87 | COC(=O)c1c(N)c2ccc(Br)cc2n(-c2ccc3ccncc3c2)c1=O [Example 219, methyl 4-amino-7-bromo-1-(isoquinolin-7-yl)-2-oxo-1,2-dihydroquinoline-3-carboxylate]

Row | IC50 [nM] | Structure (SMILES)
18 | 1.08 | COC(=O)c1c(N)c2ccc(Br)cc2n(-c2ccc(N)cc2F)c1=O [Example 259, methyl 4-amino-1-(4-amino-2-fluorophenyl)-7-bromo-2-oxo-1,2-dihydro quinoline-3-carboxylate]
19 | 1.08 | COC(=O)c1c(N)c2ccc(I)cc2n(-c2ccc(C)nc2C)c1=O [Example 294, methyl 4-amino-1-(2,6-dimethylpyridin-3-yl)-2-oxo-7-iodo-1,2-dihydroquinoline-3-carboxylate]
20 | 1.45 | [2H]CC(O)c1ccc(-n2c(=O)c(C(=O)OC([2H])([2H])[2H])c(N)c3ccc(C(F)(F)F)nc32)cc1 (stereo not drawn) [Example 371, methyl-d3 4-amino-1-(4-(1-hydroxyethyl-2-d)phenyl)-2-oxo-7-(trifluoromethyl)-1,2-dihydro-1,8-naphthyridine-3-carboxylate]
21 | 0.32 | [2H]C([2H])([2H])OC(=O)c1c(N)c2ccc(Br)cc2n(-c2ccc(N)cc2)c1=O [Example 189, methyl-d3 4-amino-1-(4-aminophenyl)-7-bromo-2-oxo-1,2-dihydroquinolin-3-carboxylate]
22 | 4.6 | CCc1ccccc1-n1c(=O)c(C(=O)OC)c(N)c2ccc(C(F)(F)F)cc21 [Example 145, methyl 4-amino-1-(2-ethylphenyl)-2-oxo-7-(trifluoromethyl)-1,2-dihydroquinoline-3-carboxylate]
23 | 0.54 | COC(=O)c1c(N)c2ccc(C(F)F)cc2n(-c2ccc([C@@H](C)O)cc2)c1=O [Example 357, methyl (R)-4-amino-7-(difluoromethyl)-1-(4-(1-hydroxyethyl)phenyl)-2-oxo-1,2-dihydroquinoline-3-carboxylate]
24 | 2.28 | COC(=O)c1c(N)c2ccc(Br)nc2n(-c2ccc(C(C)O)nc2)c1=O (stereo not drawn) [Example 332, methyl 4-amino-7-bromo-1-(6-(1-hydroxyethyl)pyridin-3-yl)-2-oxo-1,2-dihydro-1,8-naphthyridine-3-carboxylate]
25 | 2.07 | COC(=O)c1c(N)c2ccc(Br)cc2n(-c2ccc3nccnc3c2)c1=O [Example 220, methyl 4-amino-7-bromo-2-oxo-1-(quinoxalin-6-yl)-1,2-dihydroquinoline-3-carboxylate]
26 | 4.47 | COC(=O)c1c(N)c2ccc(C)cc2n(-c2cccc3cnccc23)c1=O [Example 205, methyl 4-amino-1-(isoquinolin-5-yl)-7-methyl-2-oxo-1,2-dihydroquinoline-3-carboxylate]
27 | 6.76 | COC(=O)c1c(N)c2ccc(C3CC3)cc2n(-c2ccccc2)c1=O [Example 66, methyl 4-amino-7-cyclopropyl-2-oxo-1-phenyl-1,2-dihydroquinoline-3-carboxylate]
28 | 7.38 | COC(=O)c1c(N)c2ccc(C(F)(F)F)cc2n(-c2cccc3c[nH]nc23)c1=O [Example 267, methyl 4-amino-1-(2H-indazol-7-yl)-2-oxo-7-(trifluoromethyl)-1,2-dihydroquinoline-3-carboxylate]
29 | 4.91 | COC(=O)c1c(N)c2ccc(Br)cc2n(-c2cccc3nccn23)c1=O [Example 195, methyl 4-amino-7-bromo-1-(imidazo(3,2-a)pyridin-5-yl)-2-oxo-1,2-dihydro quinoline-3-carboxylate]
30 | 8.38 | COC(=O)c1c(N)c2ccc(Br)cc2n(-c2cccc3c2COC3)c1=O [Example 222, methyl 4-amino-7-bromo-1-(1,3-dihydro-2-benzofuran-4-yl)-2-oxo-1,2-dihydroquinoline-3-carboxylate]
31 | 1.86 | COC(=O)c1c(N)c2ccc(Br)cc2n(-c2ccc(OC)cc2)c1=O [Example 87, methyl 4-amino-7-bromo-1-(4-methoxyphenyl)-2-oxo-1,2-dihydroquinoline-3-carboxylate]
32 | 2.34 | COC(=O)c1c(N)c2ccc(C(F)(F)F)nc2n(-c2cccc3c(Cl)nccc23)c1=O [Example 318, methyl 4-amino-1-(1-chloroisoquinolin-5-yl)-2-oxo-7-(trifluoromethyl)-1,2-dihydro-1,8-naphthyridine-3-carboxylate]
33 | 2.34 | COC(=O)c1c(N)c2ccc(Br)cc2n(-c2cccc3c(Cl)nccc23)c1=O [Example 216, methyl 4-amino-1-(1-chloroisoquinolin-5-yl)-7-bromo-2-oxo-1,2-dihydroquinoline-3-carboxylate]
